According to paper PMC4021065, “A novel, non-radioactive eukaryotic in vitro transcription assay for sensitive quantification of RNA polymerase II activity” (BMC Molecular Biology, 2014):
Like-named read-outs stand apart in the source and are kept apart here.

Experiments:
RNA polymerase II [1] = conditions: cited from earlier work
RNA polymerase II [2] = molecular target: T1, RNA polymerase II (Homo sapiens, UniProt P24928); assay type: biochemical; conditions: for IC50: qPCR, read-out: IC50 (RNA synthesis)
T1 construct: a well-defined nuclear extract providing the RNA polymerase II and a basal set of transcription factors; purchased Promega; host or cells: HeLa cell nuclear extract (endogenous enzyme)

RNA polymerase II [3] = molecular target: T1, RNA polymerase II; test: In vitro transcription with primer extension and qPCR (EGFP-LNA1 probe) detection, pEGFP-N1 / CMV-EGFP templates; assay type: biochemical
Experimental: (§1) Transcription reactions were set up as using the Promega HeLaScribe Nuclear Extract in vitro Transcription System were set up as described by the manufacturer with some modifications. The reaction volume was doubled to 50 μl. A master mix was prepared from a volume transcription buffer (20 mM HEPES, pH 7.9, 100 mM KCl, 0.2 mM EDTA, 0.5 mM DTT, 20% glycerol) corresponding to 22 μl minus the nuclear extract volume, MgCl2 to a final concentration of 3 mM, 40 Units RNase inhibitor, DNA template (1 μg pEGFP-N1 plasmid or 150 ng linear DNA fragment CMV-EGFP, respectively) and the nuclear extract following the manufacturer’s recipe. Aliquots of the master mix were transferred into reaction tubes containing different α-amanitin concentrations or water and incubated for 20 min at room temperature. Standard transcription reactions containing no α-amanitin were referred as ‘positive’, reactions containing α-amanitin or other inhibitors as ’inhibited’. A standard reaction containing no α-amanitin/inhibitors but also no NTPs was used as a ‘negative control transcription’. The reactions were started by the addition of the NTP mix to a final concentration of 400 μM each, except for the negative control where water was added. After incubating for 30 min at 30°C, the reactions were stopped by diluting with 400 μl of the RLT buffer from the Qiagen RNeasy Micro kit and stored at −80°C until proceeding with RNeasy cleanup. This was performed as recommended by the manufacturer, including on-column DNase treatment but without the addition of carrier RNA. The RNA was eluted using 15 μl water and stored at −80°C.
The purified RNA was once more DNase-treated using the Epicentre BaselineZero DNase kit as recommended by the manufacturer, 8.8 μl of the RNA being digested in a final volume of 10 μl. As a second negative control, 50 ng of the linear DNA fragment CMV-EGFP were directly DNase-digested and further processed as the RNA samples (‘DNase control’). For reverse transcription with the Qiagen Sensiscript RT kit, 2 μl of the digestion reaction and 1 μM EGFPrev1 primer (Table 1) were used in a final reaction volume of 20 μl. After reaction, 1 μl of the reverse transcription mix was transferred to PCR tubes containing 24 μl PCR mix aliquots. The standard PCR amplification was performed using the Epicentre Failsafe PCR system with the Mix A and the EGFPrev1 and EGFPfrw1 (Table 1) primer mix. Positive PCR control reactions contained 50 ng pEGFP-N1 plasmid; negative PCR controls contained no DNA. After amplification, the products were analyzed by gel electrophoresis onto 1.5% agarose.
For quantitation using SYBR detection, the Qiagen QuantiFast SYBR green qPCR kit was used. 1 μl of the reverse transcription mix was amplified in 25 μl reaction mix containing 500 nM of each EGFP-rev1 and EGFP-frw1 primer. For quantitation using the sequence-specific LNA probe EGFP-LNA1 at 250 nM, same primer set as well as an alternative primer set (EGFPfrw2 and EGFPrew2, Table 1) at 500 nM each and Sigma Jumpstart Taq ReadyMix for qPCR were used. 2 μl of the reverse transcription reaction were diluted into qPCR reactions with a final volume of 20 μl and qPCR performed in a Bio-Rad DNAEngine lightcycler. A qPCR standard curve was prepared from the CMV-EGFP DNA fragment and used for RNA copy number calculations. The amount of RNA in the inhibited probes was related to the RNA amount detected for the positive transcription reaction.

RNA polymerase II [4] = molecular target: T1, RNA polymerase II; test: In vitro transcription (HeLaScribe nuclear extract) with primer extension and PCR gel detection; assay type: biochemical
Experimental: as §1, with “The reactions were started by the addition of the NTP mix to a final concentration of 400 μM each, except for the negative control where water was added. After incubating for 30 min at 30°C, the reactions were stopped by diluting with 400 μl of the RLT buffer from the Qiagen RNeasy Micro kit and stored at −80°C until proceeding with RNeasy cleanup. This was performed as recommended by the manufacturer, including on-column DNase treatment but without the addition of carrier RNA. The RNA was eluted using 15 μl water and stored at −80°C.” left out
The purified RNA was once more DNase-treated using the Epicentre BaselineZero DNase kit as recommended by the manufacturer, 8.8 μl of the RNA being digested in a final volume of 10 μl. […] After amplification, the products were analyzed by gel electrophoresis onto 1.5% agarose.

RNA polymerase II [5] = molecular target: T1, RNA polymerase II; test: biochemical; conditions: for IC50: QuantiGene, read-out: IC50 (RNA synthesis)
[6] = 200 nM, template HS-DNA_mut (TATA box mutated)

CCC(C)C1NC(=O)CNC(=O)C2Cc3c([nH]c4cc(OC)ccc34)[S+]([O-])CC(NC(=O)CNC1=O)C(=O)NC(CC(N)=O)C(=O)N1CC(O)CC1C(=O)NC(C(C)C(C)O)C(=O)N2 (stereo not shown) [6′–O-methyl-γ-amanitin]
potency as RNA polymerase II inhibitor relative to α-amanitin (less potent) (RNA polymerase II [1]): about two-fold

CN1CC[C@H](c2c(O)cc(O)c3c(=O)cc(-c4ccccc4Cl)oc23)[C@H](O)C1 [flavopiridol]
IC50 (RNA polymerase II [2]; HS-DNA_long template, 10 min at 30°C, second set of reactions): 940 nM
IC50 (RNA polymerase II [2]; standard HS-DNA template, 30 min at 30°C, first set of reactions): > 125000 nM

CC[C@H](C)[C@@H]1NC(=O)CNC(=O)[C@@H]2Cc3c([nH]c4cc(O)ccc34)[S@+]([O-])C[C@H](NC(=O)CNC1=O)C(=O)N[C@@H](CC(N)=O)C(=O)N1C[C@H](O)C[C@H]1C(=O)N[C@@H]([C@@H](C)[C@@H](O)CO)C(=O)N2 [α-amanitin]
qPCR C(T) value of inhibited transcription (RNA polymerase II [3]; linear CMV-EGFP template, 2 μM, uninhibited C(T) 16.1, Figure 3B): 24.5
qPCR C(T) value of inhibited transcription (RNA polymerase II [3]; linear CMV-EGFP template, 20 μM, uninhibited C(T) 16.1, Figure 3B): 28.1
qPCR C(T) value of inhibited transcription (RNA polymerase II [3]; linear CMV-EGFP template, 50 μM, uninhibited C(T) 16.1, Figure 3B): 37.0
qPCR C(T) value of inhibited transcription (RNA polymerase II [3]; linear CMV-EGFP template, 100 μM, uninhibited C(T) 16.1, Figure 3B, C): 27.9
qPCR C(T) value of inhibited transcription (RNA polymerase II [3]; pEGFP-N1 plasmid template, 100 μM, uninhibited C(T) 17.6 / 18.0, Figure 3A, C): 21.7
inhibitory effect on transcription (PCR product on gel) (RNA polymerase II [4]; linear CMV-EGFP template, 400, 100 and 20 μM, Figure 2B): gradually increasing inhibitory effects
amount of PCR product after transcription (RNA polymerase II [4]; pEGFP-N1 plasmid template, 100 μM, Figure 2A): clearly diminished amount of PCR product
inhibition of transcription efficacy (RNA polymerase II [5]; 200 nM, both templates (standard HS-DNA and TATA box mutant)): 88 ± 1%
% RNA synthesis (compared to respective positive control) (RNA polymerase II [5]; [6]): 12% ± 1%
Signal (RLU average) (RNA polymerase II [5]; [6]): 130255 RLU
% RNA synthesis (compared to respective positive control) (RNA polymerase II [5]; 200 nM, template HS-DNA_std): 12% ± 1%
Signal (RLU average) (RNA polymerase II [5]; 200 nM, template HS-DNA_std): 161585 RLU
IC50 (RNA polymerase II [5]; Bead-HS-DNA template, Figure 5C): 5700 nM
IC50 (RNA polymerase II [5]; HS-DNA_long template, 10 min at 30°C, Figure 6C): 54 nM
IC50 (RNA polymerase II [5]; standard HS-DNA template, 30 min at 30°C, Figure 6A): 4 nM
inhibitory effect, short incubation vs standard (times lower) (RNA polymerase II [2]; 10 min, HS-DNA_long vs 30 min, standard template): ca. 10 ×
